Test results as given in the supplement of paper PMC10307832.

Columns and labels:
Experiment in all cases: relative viability (nuclei count vs DMSO), 5 days (fraction); higher = more cells survive
Vorinostat = compound: O=C(CCCCCCC(=O)Nc1ccccc1)NO [Vorinostat]
In short: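 Lung cancer cell lines in 1536-well plates were exposed by pinning to five library-drug doses (not always all listed) √10 apart, following an overnight hold at 37 °C. MetaXpress counted Hoechst-stained nuclei from 4× images taken after 5 days without medium change. Viability is the median ratio of treated-well to vehicle-well nuclei across plates. Plates required control CV below 25% and at least one doubling.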

Vorinostat + Lapatinib = compound: O=C(CCCCCCC(=O)Nc1ccccc1)NO [Vorinostat] + CS(=O)(=O)CCNCc1ccc(-c2ccc3ncnc(Nc4ccc(OCc5cccc(F)c5)c(Cl)c4)c3c2)o1 [Lapatinib] (partner 2 µM)
In short: (§1)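 Lung cancer cell lines, seeded in 1536-well plates, were treated the following day by pin tool with a single drug or with five library-drug doses (not always all listed) in √10 steps on top of a fixed anchor-drug dose. Cells were fixed and nuclei stained in one step after 5 days, and nuclei were counted. Relative viability is the nuclei count for treated wells divided by that for vehicle wells, reported as medians of duplicate plates.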

Vorinostat + Foretinib = compound: O=C(CCCCCCC(=O)Nc1ccccc1)NO [Vorinostat] + COc1cc2c(Oc3ccc(NC(=O)C4(C(=O)Nc5ccc(F)cc5)CC4)cc3F)ccnc2cc1OCCCN1CCOCC1 [Foretinib] (partner 0.25 µM)
In short: as §1

Vorinostat + Palbociclib = compound: O=C(CCCCCCC(=O)Nc1ccccc1)NO [Vorinostat] + CC(=O)c1c(C)c2cnc(Nc3ccc(N4CCNCC4)cn3)nc2n(C2CCCC2)c1=O [Palbociclib] (partner 0.5 µM)
In short: as §1

| Cell Line | relative viability (Vorinostat; 0.253 µM) | relative viability (Vorinostat; 0.8 µM) | relative viability (Vorinostat; 1 µM, anchor plate) | relative viability (Vorinostat; 2.53 µM) | relative viability (Vorinostat; 8 µM) | relative viability (Vorinostat + Lapatinib; first compound 0.253 µM) | relative viability (Vorinostat + Lapatinib; first compound 0.8 µM) | relative viability (Vorinostat + Lapatinib; first compound 2.53 µM) | relative viability (Vorinostat + Lapatinib; first compound 8 µM) | relative viability (Vorinostat + Foretinib; first compound 0.253 µM) | relative viability (Vorinostat + Foretinib; first compound 0.8 µM) | relative viability (Vorinostat + Foretinib; first compound 2.53 µM) | relative viability (Vorinostat + Foretinib; first compound 8 µM) | relative viability (Vorinostat + Palbociclib; first compound 0.253 µM) | relative viability (Vorinostat + Palbociclib; first compound 0.8 µM) | relative viability (Vorinostat + Palbociclib; first compound 2.53 µM) | relative viability (Vorinostat + Palbociclib; first compound 8 µM) |
| --- | --- | --- | --- | --- | --- | --- | --- | --- | --- | --- | --- | --- | --- | --- | --- | --- | --- |
| NCI-H1437 | 1.04 | 0.831 | 0.861 | 0.421 | 0.184 | 0.846 | 0.476 | 0.153 | 0.0924 | 1.25 | 1.22 | 0.546 | 0.171 | 0.303 | 0.265 | 0.172 | 0.124 |
| HOP-62 | 1.2 | 0.882 | 0.679 | 0.528 | 0.113 | 1.25 | 0.572 | 0.516 | 0.0547 | 1.03 | 1.1 | 0.365 | 0.122 | 0.492 | 0.409 | 0.177 | 0.0765 |
| LCLC-97TM1 | 0.979 | 1.07 | 0.711 | 0.715 | 0.1 | – | 0.784 | 1.49 | 0.115 | 1.06 | 0.957 | 0.394 | 0.153 | 0.256 | 0.201 | 0.109 | 0.0671 |
| NCI-H1975 | 1.08 | 0.817 | 0.707 | 0.449 | 0.14 | 1.16 | 0.787 | 0.303 | 0.117 | 0.962 | 0.838 | 0.295 | 0.108 | 0.569 | 0.461 | 0.164 | 0.104 |
| NCI-H520 | 1.35 | 0.955 | 0.745 | 0.503 | 0.175 | 1.12 | 0.668 | 0.319 | 0.116 | 0.965 | 0.791 | 0.555 | 0.179 | 0.351 | 0.31 | 0.19 | 0.133 |
| UMC-11 | 1.1 | 0.617 | 0.403 | 0.201 | 0.103 | 1.05 | 0.238 | 0.137 | 0.0786 | 1.12 | 0.465 | 0.121 | 0.103 | 0.356 | 0.233 | 0.179 | 0.116 |
| NCI-H2347 | 1.11 | 0.962 | 0.61 | 0.777 | 0.262 | 0.988 | 1.04 | 0.766 | 0.341 | 1.02 | 0.84 | 0.587 | 0.198 | 0.405 | 0.371 | 0.362 | 0.242 |
| CAL-12T | 1.13 | 1.09 | 0.807 | 0.537 | 0.137 | 0.682 | 0.649 | 0.438 | 0.111 | 1.34 | 1.14 | 0.721 | 0.119 | 0.61 | 0.386 | 0.182 | 0.0984 |
| COR-L23 | 1.09 | 0.763 | 0.426 | 0.18 | 0.0822 | 1.07 | 0.818 | 0.139 | 0.0646 | 1.02 | 0.671 | 0.152 | 0.0834 | 0.281 | 0.19 | 0.0948 | 0.0728 |
| NCI-H2087 | 1.03 | 0.634 | 0.737 | 0.246 | 0.0956 | 1.23 | 0.962 | 0.352 | 0.178 | 1.34 | 0.615 | 0.153 | 0.0924 | 0.277 | 0.107 | 0.0624 | 0.0734 |
| NCI-H23 | 1.14 | 0.985 | 0.653 | 0.541 | 0.136 | 1.24 | 1.03 | 0.344 | 0.141 | 1.05 | 0.724 | 0.336 | 0.129 | 0.696 | 0.622 | 0.154 | 0.137 |
| ABC-1 | 1.16 | 0.707 | 1.23 | 0.32 | 0.171 | 1.14 | 1.12 | 1.13 | 0.27 | 1.07 | 0.834 | 0.358 | 0.102 | 0.696 | 0.563 | 0.344 | 0.137 |
| SW 1573 | 1.25 | 0.938 | 0.84 | 0.485 | 0.0973 | 1.17 | 1.07 | 0.824 | 0.133 | 1.29 | 1.07 | 0.75 | 0.15 | 0.433 | 0.305 | 0.212 | 0.0703 |
| NCI-H1703 | 1.41 | 1.39 | – | 1.03 | 0.244 | 1.64 | 1.49 | 1.02 | 0.247 | 0.418 | 0.599 | 0.632 | 0.277 | – | – | – | – |
| NCI-H2126 | 1.03 | 0.875 | 0.769 | 0.655 | 0.257 | 0.75 | 0.733 | 0.562 | 0.22 | 1.14 | 0.968 | 0.365 | 0.235 | 0.396 | 0.367 | 0.314 | 0.194 |
| SK-MES-1 | 1.11 | 1.02 | 1.08 | 0.555 | 0.203 | 0.504 | 0.438 | 0.433 | 0.187 | 1.14 | 1.04 | 0.778 | 0.249 | 0.377 | 0.453 | 0.418 | 0.222 |
| SK-LU-1 | 1.19 | 0.924 | 0.781 | 0.668 | 0.19 | 1.05 | 0.738 | 0.449 | 0.16 | 0.881 | 0.829 | 0.385 | 0.137 | 0.438 | 0.363 | 0.32 | 0.177 |
| LC-2-ad | 0.989 | 0.722 | 0.691 | 0.228 | 0.155 | 0.924 | 0.67 | 0.253 | 0.0672 | 0.984 | 0.681 | 0.268 | 0.145 | 0.566 | 0.455 | 0.331 | 0.186 |
| LU99A | 1.1 | 0.809 | 0.537 | 0.513 | 0.209 | 1.01 | 0.871 | 0.315 | 0.169 | 0.81 | 0.692 | 0.319 | 0.222 | 0.389 | 0.375 | 0.272 | 0.104 |
